Assay results reported in patent US20040006120A1, “Use of histamine h3 receptor inverse agonists for the control of appetite and treatment of obesity” (priority 2003, published 2004).
Marks after values point to notes of the source that are not given here.

What was measured:
[1] = target: T1, H3 receptor occupancy in the brain (Rattus norvegicus, UniProt Q9QYN8); test: Ex vivo binding: H3 receptor occupancy in the brain after intraperitoneal administration; conditions: following intraperitoneal administration
T1 construct: H3 receptor occupancy in the brain following intraperitoneal administration; from tissue
T1 sequence (Q9QYN8 whole entry): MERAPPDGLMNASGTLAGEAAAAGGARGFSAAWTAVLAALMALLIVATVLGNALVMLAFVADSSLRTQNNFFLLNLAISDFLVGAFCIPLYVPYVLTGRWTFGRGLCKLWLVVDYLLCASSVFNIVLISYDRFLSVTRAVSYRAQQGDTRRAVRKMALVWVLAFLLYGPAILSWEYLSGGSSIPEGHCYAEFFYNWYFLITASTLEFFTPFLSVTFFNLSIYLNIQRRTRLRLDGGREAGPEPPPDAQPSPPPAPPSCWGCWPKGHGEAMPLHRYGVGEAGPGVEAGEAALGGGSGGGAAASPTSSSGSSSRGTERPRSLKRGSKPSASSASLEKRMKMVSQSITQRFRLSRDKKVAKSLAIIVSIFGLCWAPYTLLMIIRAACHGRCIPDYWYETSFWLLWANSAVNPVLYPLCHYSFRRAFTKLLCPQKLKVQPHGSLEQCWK
Excerpt: (§1) The percent reduction in food intake by rats two hours after intraperitoneal administration of each compound is shown in Table 5. […] In Table 5, * indicates a significant decrease in food intake compared to the vehicle-treated rats (t-test, p<0.05). The ex vivo binding values in Table 5 represent the drug dose required to obtain ½-maximal H3 receptor occupancy in the brain following intraperitoneal administration. The dose values shown in Table 5 represent the dosage of drug utilized during the food intake studies. In all cases, the tested dose exceeded the amount needed to obtain ½-maximal H3 receptor occupancy in the brain.

[2] = test system: food consumption by adult Sprague-Dawley rats; test: Food intake by adult Sprague-Dawley rats; format: in vivo, rat; conditions: for Decrease in Food Intake (%): two hours following the onset of the dark cycle
Method: The compounds summarized in Table 3 were examined for their ability to suppress food consumption by adult Sprague-Dawley rats. Male Sprague Dawley rats were purchased from Harlan Laboratories of Indianapolis, Ind. Rats were housed one per cage and maintained on a 12 hour light/dark schedule (lights-out at 12:30 p.m.) with ad libitum access to powdered Teklad Mouse/Rat Diet 7012 (available from Harlan Laboratories of Indianapolis, Ind.) and water. Rats were acclimated to laboratory conditions and food for 1 to 2 weeks prior to initiating food intake studies. On the day of experiments, test compounds were solubilized or suspended in vehicle/carrier and administered to rats (i.p. or p.o.) 30 to 60 minutes prior to the onset of the dark cycle. Food intake was determined at 1, 2, 4, and 24 hours following the onset of the dark cycle. Alternatively, rats were fasted (water provided) for 24 hours prior to evaluating the effects of compounds on food intake. For these studies, compounds or vehicle/carrier were administered and rats were placed in standard small animal metabolism chambers with ad libitum access to powdered Teklad Mouse/Rat Diet 7012 and water. Food intake was determined at 2 and 4 hours following the onset of feeding.
Data is cumulative food intake in grams, mean ± sem. In the table, * indicates a significant decrease in food intake compared to the vehicle-treated rats (t-test, p<0.05).
as §1

[3] = target: T2, Histamine H3 receptor (Rattus norvegicus, UniProt Q9QYN8); test: Histamine H3 receptor binding in rat cerebral cortical membranes with [3H]-Nα-methylhistamine, with and without GTPγS; conditions: in words
T2 construct: The cerebral cortical tissues were harvested and frozen on dry ice; from tissue; host or cells: cerebral cortex of male Sprague-Dawley rats (membrane preparation)
T2 sequence (Q9QYN8 whole entry): as above
Method: A histamine H3 receptor binding analysis to determine the affinity of various imidazole derivatives for G-protein uncoupled receptors was performed as follows. Male Sprague-Dawley rats were purchased from Harlan Laboratories of Indianapolis, Ind. and housed two per cage on a 12 hour light/dark schedule with ad libitum access to Teklad Mouse/Rat Diet 7012 (available from Harlan Laboratories of Indianapolis, Ind.) and water in accordance with the Animal Welfare Act of 1994 and amendments. Animals were acclimated to laboratory conditions for a minimum of one week prior to tissue harvesting.
Animals were anesthetized by NO2 inhalation and euthanized by rapid decapitation. The cerebral cortical tissues were harvested and frozen on dry ice. Rat corticies were mechanically homogenized using a Tissue Tearer in 25 mM Tris buffer (pH 7.5 at 4° C.) containing: EDTA (10 mM), phenylmethylsulfonyl fluoride (0.1 mM), chymostatin and leupeptin (each 0.2 mg/50 mL). The homogenate was centrifuged in a Sorvall centrifuge at 40,000×g for 30 minutes. The pellet was re-suspended in 25 ml water and lysed on ice for 30 minutes. The homogenate was then re-centrifuged and the membrane lysis was repeated. […] Protein concentrations were determined using the Coomassie Plus Protein Assay (available from Pierce of Rockford, Ill.). […]

| Compound | Ex Vivo Binding: drug dose required to obtain ½-maximal H3 receptor occupancy in the brain [1] | Decrease in Food Intake (%) ([2]; Dose 10, intraperitoneal) | also measured |
| --- | --- | --- | --- |
| O=C(N[C@@H]1C[C@H]1c1c[nH]cn1)OCCC1CCCCC1 [Compound 1, 4-((1R,2R)-trans-2-(O(2-cyclohexylethyl)carboxamido)cyclopropyl)imidazole] | 31 ± 1.3 mg/kg | 32.6 ± 4.3* % | – |
| C(=C/CCC1CCCCC1)/CCc1c[nH]cn1 [Compound 2, (3Z)-4-(6-cyclohexylhex-3-en-1-yl)imidazole] | 0.92 ± 0.01 mg/kg | – | Decrease in Food Intake (%) ([2]; Dose 3, intraperitoneal): 5.5 ± 0.8%; binding to GTPγS-treated cortical membrane preparation compared with non-treated preparation [3]: relatively little difference |
| O=C(N[C@@H]1C[C@H]1c1c[nH]cn1)OCC1CCCCC1 [Compound 3, 4-((1R,2R)-trans-2-(O-(2-cyclohexylmethyl)carboxamido)cyclopropyl)imidazole] | 2.6 ± 1.3 mg/kg | 36.4 ± 3.3* % | duration of significant reduction of food consumption ([2]; single administration, 10 mg/kg i.p.): up to 24 hours |
| N[C@H](/C=C\CCc1c[nH]cn1)CC1CCCCC1 [Compound 4, 4-(((5S)(3Z)-5-amino-6-cyclohexyl)hex-3-en-1-yl)imidazole] | ˜15 mg/kg | – | Decrease in Food Intake (%) ([2]; Dose 20, intraperitoneal): 53.9 ± 11.1* % |
| O=C(CCCCC1CCCCC1)N1CCC(c2c[nH]cn2)CC1 [Compound 5, 4-(N-(5-cyclohexylpentan-1-one-1-yl)piperidin-4-yl)imidazole] | 8.0 ± 1.3 mg/kg | 67.6 ± 9.6* % | – |
| CC(C)(C)CCC#C[C@@H]1C[C@H]1c1c[nH]cn1 [Compound 6, (1R,2R)-trans-4-(2-(5,5-dimethylhex-1-ynyl)cyclopropyl)imidazole] | 0.08 ± 0.03 mg/kg | – | Decrease in Food Intake (%) ([2]; Dose 1, intraperitoneal): −4.6 ± 0.8% |
| O=C(N[C@@H]1C[C@H]1c1c[nH]cn1)OCc1c(Cl)cccc1Cl [Compound 7, 4-((1R,2R)-trans-2-(O-(2,6-dichlorophenylmethyl)carboxamido)cyclopropyl)imidazole] | 2.9 ± 1.3 mg/kg | 0.8 ± 0.0% | – |
| Fc1ccc(C(OCCCc2c[nH]cn2)c2ccc(F)cc2)cc1 [Compound 8, 3-(1H-imidazol-4-yl)propyl-di(p-fluorophenyl)-methylether] | 5.6 ± 0.12 mg/kg | 56.6 ± 8.3* % | – |
| CC(C)(C)CCOC(=O)N[C@@H]1C[C@H]1c1c[nH]cn1 [Compound 9, 4-((1R,2R)-trans-2-(O-(3,3-dimethyl-but-1-yl)carboxamido)cyclopropyl)imidazole] | 3.7 ± 0.4 mg/kg | −25.1 ± 3.8% | – |
